Measurements from the Kinase Knowledgebase extract (Sharma et al. 2016).

Each compound was assayed against PIK3CA (human) (UniProt P42336) (assay: Inhibition of PIK3CA Kinase Activity).
Chain of PIK3CA (human) (P42336 whole entry, looked up): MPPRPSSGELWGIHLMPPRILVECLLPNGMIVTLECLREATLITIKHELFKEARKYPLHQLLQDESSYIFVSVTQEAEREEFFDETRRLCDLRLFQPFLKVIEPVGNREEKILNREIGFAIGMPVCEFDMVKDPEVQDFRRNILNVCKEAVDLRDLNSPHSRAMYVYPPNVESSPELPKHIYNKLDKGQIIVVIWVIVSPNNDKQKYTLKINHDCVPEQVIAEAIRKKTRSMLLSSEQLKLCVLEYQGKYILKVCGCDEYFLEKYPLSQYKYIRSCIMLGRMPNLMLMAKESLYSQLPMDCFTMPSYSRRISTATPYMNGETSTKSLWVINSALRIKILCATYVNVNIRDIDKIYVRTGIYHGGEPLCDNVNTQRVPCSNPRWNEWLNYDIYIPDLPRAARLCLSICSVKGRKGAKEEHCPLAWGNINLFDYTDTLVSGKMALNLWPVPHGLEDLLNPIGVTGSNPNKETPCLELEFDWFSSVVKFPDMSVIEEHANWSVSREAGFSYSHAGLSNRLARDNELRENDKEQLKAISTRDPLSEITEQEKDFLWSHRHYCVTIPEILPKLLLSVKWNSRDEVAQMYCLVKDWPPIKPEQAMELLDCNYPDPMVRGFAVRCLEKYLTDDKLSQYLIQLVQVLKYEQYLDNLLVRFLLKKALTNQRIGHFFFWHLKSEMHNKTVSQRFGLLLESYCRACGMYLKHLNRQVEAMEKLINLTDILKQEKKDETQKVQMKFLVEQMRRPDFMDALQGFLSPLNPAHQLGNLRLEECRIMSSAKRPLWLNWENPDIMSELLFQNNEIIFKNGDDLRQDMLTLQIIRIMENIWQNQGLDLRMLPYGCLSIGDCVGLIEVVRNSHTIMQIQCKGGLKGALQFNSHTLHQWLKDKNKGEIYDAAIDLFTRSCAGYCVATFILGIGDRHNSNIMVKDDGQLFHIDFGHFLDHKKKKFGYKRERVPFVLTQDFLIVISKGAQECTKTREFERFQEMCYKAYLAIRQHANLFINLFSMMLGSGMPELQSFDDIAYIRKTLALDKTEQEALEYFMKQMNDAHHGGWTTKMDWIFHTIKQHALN

| IC50 | SMILES |
| --- | --- |
| ≤ 10 nM | COc1ccc2c(N3CCOc4ccc(-c5cnc6nc(C)[nH]c6c5)cc4C3)ncnc2c1 |
| 50 to 250 nM | CCc1ncnc(N2CCOc3ccc(-c4ccc5nc(C)[nH]c5c4)cc3C2)c1CC |
| 10 to 50 nM | COCCOCc1nc2c(c(N3CCOc4ccc(-c5cnc6nc(C)[nH]c6c5)cc4C3)n1)CC(C)(C)CC2 |
| ≤ 10 nM | Cc1nc2ncc(-c3ccc4c(c3)CN(c3nc(CNC(C)C)nc5c3CC(C)(C)CC5)CCO4)cc2[nH]1 |
| 10 to 50 nM | COc1ccc2c(N3CCOc4ccc(-c5cnc(NC(C)=O)s5)cc4C3)nc(C)nc2c1 |
| 10 to 50 nM | Cc1nc2ccc(-c3ccc4c(c3)CN(c3nc(CNC5CC5)nc5c3CC(C)(C)CC5)CCO4)cc2[nH]1 |
| 10 to 50 nM | COc1c(Br)ccc2c(N3CCOc4ccc(-c5ccc6nc(C)[nH]c6c5)cc4C3)ncnc12 |
| 250 to 1000 nM | COc1cc2c(N3CCOc4ccc(-c5ccc6nc(C)[nH]c6c5)cc4C3)ncnc2cc1OCc1ccccc1 |
| 50 to 250 nM | CN1CCN(S(=O)(=O)c2cc(-c3ccc4c(c3)CN(c3ncnc5c3CC(C)(C)CC5)CCO4)cnc2N)CC1 |
| 10 to 50 nM | CC(C)(N)CCNS(=O)(=O)c1cc(-c2ccc3c(c2)CN(c2ncnc4c2CC(C)(C)CC4)CCO3)cnc1N |
| 10 to 50 nM | CN1CCC(CNS(=O)(=O)c2cc(-c3ccc4c(c3)CN(c3ncnc5c3CC(C)(C)CC5)CCO4)cnc2N)CC1 |
| ≤ 10 nM | CCNc1nc2ccc(-c3ccc4c(c3)CN(c3ccnc5cc(OC)ccc35)CCO4)cc2[nH]1 |
| 50 to 250 nM | Cc1ncnc(N2CCOc3ccc(-c4ccc5[nH]nc(N)c5c4)cc3C2)c1Cc1ccc(F)cc1 |
| 250 to 1000 nM | CC1(C)CCc2ncnc(N3CCOc4ccc(-c5cnc(N)nc5)cc4C3)c2C1 |
| 250 to 1000 nM | Cc1nc(N)sc1-c1ccc2c(c1)CN(c1ncnc(C)c1Cc1ccc(F)cc1)CCO2 |
| 10 to 50 nM | COC(=O)Nc1nc2ccc(-c3ccc4c(c3)CN(c3ncnc5cc(OC)c(OC)cc35)CCO4)cc2[nH]1 |
| 10 to 50 nM | CCNS(=O)(=O)c1cc(-c2ccc3c(c2)CN(c2ncnc4c2CC(C)(C)CC4)CCO3)cnc1N |
| 10 to 50 nM | Nc1nc2ncc(-c3ccc4c(c3)CN(c3ncnc5cccnc35)CCO4)cc2[nH]1 |
| ≤ 10 nM | CN(C)Cc1nc2c(c(N3CCOc4ccc(-c5ccc6[nH]c(CF)nc6c5)cc4C3)n1)CC(C)(C)CC2 |
| ≤ 10 nM | Cc1nc(N)nc(N2CCOc3ccc(-c4cnc5[nH]cnc5c4)cc3C2)c1Cc1ccc(F)cc1 |
| ≤ 10 nM | Cc1nc2ccc(-c3ccc4c(c3)CN(c3ccnc5cc(F)ccc35)CCO4)cc2[nH]1 |
| ≤ 10 nM | COc1ccc2c(N3CCOc4ccc(-c5cnc6sc(N)nc6c5)cc4C3)nc(C)nc2c1 |

| IC50 | SMILES |
| --- | --- |
| ≤ 10 nM | CN(C)Cc1nc2c(c(N3CCOc4ccc(-c5cnc(Cl)c(NS(C)(=O)=O)c5)cc4C3)n1)CC(C)(C)CC2 |
| 10 to 50 nM | Cc1nc2ccc(-c3ccc4c(c3)CN(c3ccnc(C)c3Cc3ccc(F)cc3)CCO4)cc2[nH]1 |
| ≤ 10 nM | COc1ccc2c(N3CCOc4ccc(-c5cnc6nc(N)[nH]c6c5)cc4C3)nc(C)nc2c1 |
| ≤ 10 nM | COc1ccc2c(N3CCOc4ccc(-c5ccc(-c6ncc[nH]6)cc5)cc4C3)nc(C)nc2c1 |
| ≤ 10 nM | CCNc1nc2ncc(-c3ccc4c(c3)CN(c3ncnc5c3CC(C)(C)CC5)CCO4)cc2[nH]1 |
| 250 to 1000 nM | Cc1nc2ccc(-c3ccc4c(c3)CN(c3ncnc5ccc(OCCCN(C)C)cc35)CCO4)cc2[nH]1 |
| ≤ 10 nM | Cc1nc2ncc(-c3ccc4c(c3)CN(c3nc(CNS(C)(=O)=O)nc5c3CC(C)(C)CC5)CCO4)cc2[nH]1 |
| 10 to 50 nM | Cc1nc(Nc2ccccc2)c(C)c(N2CCOc3ccc(-c4cnc5nc[nH]c5c4)cc3C2)n1 |
| 250 to 1000 nM | COc1ccc2c(N3CCOc4ccc(-c5ccc6[nH]ncc6c5)cc4C3)nc(C)nc2c1 |
| 10 to 50 nM | Cc1nc(C)c(Cc2ccc(F)cc2)c(N2CCOc3ccc(-c4ccc5nc(C)[nH]c5c4)cc3C2)n1 |
| 50 to 250 nM | CCc1ncnc(N2CCOc3ccc(-c4cnc5nc(C)[nH]c5c4)cc3C2)c1C |
| 50 to 250 nM | CC1(C)CCc2ncnc(N3CCOc4ccc(-c5cnc(N)c(S(=O)(=O)NC[C@@H]6CCCNC6)c5)cc4C3)c2C1 |
| ≤ 10 nM | CCNc1nc2ccc(-c3ccc4c(c3)CN(c3ncnc5cc(F)ccc35)CCO4)cc2[nH]1 |
| 10 to 50 nM | CC1(C)CCc2ncnc(N3CCOc4ccc(-c5cnc(N)c(S(=O)(=O)NCC6CNC6)c5)cc4C3)c2C1 |
| 10 to 50 nM | CC1(C)CCc2ncnc(N3CCOc4ccc(-c5cnc(N)c(S(=O)(=O)N6CC7(CNC7)C6)c5)cc4C3)c2C1 |
| 250 to 1000 nM | c1ccc2c(N3CCOc4ccc(-c5cn[nH]c5)cc4C3)ccnc2c1 |
| 50 to 250 nM | Cc1nc2ccc(-c3ccc4c(c3)CN(c3ncnc5c3CCCC5)CCO4)cc2[nH]1 |
| ≤ 10 nM | CC1(C)CCc2ncnc(N3CCOc4ccc(-c5cnc(N)c(S(=O)(=O)NCCO)c5)cc4C3)c2C1 |
| 250 to 1000 nM | c1ccc2c(N3CCOc4ccc(-c5ccc6scnc6c5)cc4C3)ccnc2c1 |
| ≤ 10 nM | Cc1nc2cc(-c3ccc4c(c3)CN(c3nc(CN5CCCC5)nc5c3CC(C)(C)CC5)CCO4)cnc2[nH]1 |
| 10 to 50 nM | Cc1nc2ncc(-c3ccc4c(c3)CN(c3ncnc5c3CCC(C(C)O)C5)CCO4)cc2[nH]1 (configuration not stated) |
| 10 to 50 nM | Cc1nc2ccc(-c3ccc4c(c3)CN(c3ncnc(C)c3Cc3ccccc3)CCO4)cc2[nH]1 |

| IC50 | SMILES |
| --- | --- |
| 50 to 250 nM | Cc1nc(Nc2ccccc2)c(C)c(N2CCOc3ccc(-c4ccc5nc[nH]c5c4)cc3C2)n1 |
| 10 to 50 nM | Cc1nc2ncc(-c3ccc4c(c3)CN(c3nc(CN5CC[C@H](F)C5)nc5c3CC(C)(C)CC5)CCO4)cc2[nH]1 |
| 50 to 250 nM | Cc1cc(Br)c2ncnc(N3CCOc4ccc(-c5ccc6nc(C)[nH]c6c5)cc4C3)c2c1 |
| 10 to 50 nM | CC[C@H]1CCc2c(ncnc2N2CCOc3ccc(-c4cnc(N)c(S(=O)(=O)N5CCC(C)(N)C5)c4)cc3C2)C1 (some centres not stated) |
| 250 to 1000 nM | COCCOc1ccc2ncnc(N3CCOc4ccc(-c5ccc6nc(C)[nH]c6c5)cc4C3)c2c1 |
| 10 to 50 nM | CC[C@H]1CCc2c(ncnc2N2CCOc3ccc(-c4cnc(N)c(S(=O)(=O)NCC(C)(C)N)c4)cc3C2)C1 |
| ≤ 10 nM | Cc1ncnc(N2CCOc3ccc(-c4cnc(N)s4)cc3C2)c1Cc1ccc(F)cc1 |
| 10 to 50 nM | Cc1nc2ccc(-c3ccc4c(c3)CN(c3ncnc(C)c3Cc3cc(F)cc(F)c3)CCO4)cc2[nH]1 |
| 250 to 1000 nM | COc1ccc(-c2ccc3c(c2)CN(c2nc(CN(C)C)nc4c2CC(C)(C)CC4)CCO3)cc1C(C)=O |
| 250 to 1000 nM | Cc1nc2ccc(-c3ccc4c(c3)CN(c3ccnc(N)n3)CCO4)cc2[nH]1 |
| 10 to 50 nM | CCc1nc(CN(C)C)nc(N2CCOc3ccc(-c4cnc5[nH]c(C)nc5c4)cc3C2)c1C |
| 10 to 50 nM | CC1(C)CCc2ncnc(N3CCOc4ccc(-c5cnc(N)c(S(=O)(=O)CCCO)c5)cc4C3)c2C1 |
| 10 to 50 nM | COCc1nc2c(c(N3CCOc4ccc(-c5cnc6[nH]c(C)nc6c5)cc4C3)n1)CC(C)(C)CC2 |
| 10 to 50 nM | Cc1nc(C)c(C(C)C)c(N2CCOc3ccc(-c4cnc5nc(C)[nH]c5c4)cc3C2)n1 |
| 250 to 1000 nM | COc1ccc2c(N3CCOc4ccc(-c5cccc(C(=O)O)c5)cc4C3)nc(C)nc2c1 |
| 10 to 50 nM | CNC1CN(S(=O)(=O)c2cc(-c3ccc4c(c3)CN(c3ncnc5c3CC(C)(C)CC5)CCO4)cnc2N)C1 |
| ≤ 10 nM | CCNc1nc2ccc(-c3ccc4c(c3)CN(c3cc(C)nc5cc(OC)ccc35)CCO4)cc2[nH]1 |
| 10 to 50 nM | CC1(C)CCc2ncnc(N3CCOc4ccc(-c5cnc6[nH]c(CF)nc6c5)cc4C3)c2C1 |
| 50 to 250 nM | Cc1nc2ccc(-c3ccc4c(c3)CN(c3nc(C(C)(C)O)nc5c3CC(C)(C)CC5)CCO4)cc2[nH]1 |
| 10 to 50 nM | Cc1nc2ccc(-c3ccc4c(c3)CN(c3ncnc5ccc(Cl)cc35)CCO4)cc2[nH]1 |
| ≤ 10 nM | COC(=O)Nc1nc2ncc(-c3ccc4c(c3)CN(c3ncnc(C)c3Cc3ccc(F)cc3)CCO4)cc2[nH]1 |
| 250 to 1000 nM | COC(=O)Nc1nc2ccc(-c3ccc4c(c3)CN(c3ccncn3)CCO4)cc2[nH]1 |

| IC50 | SMILES |
| --- | --- |
| 50 to 250 nM | Cc1nc2cc(-c3ccc4c(c3)CN(c3nc(C(C)N5CCCC5)nc5c3CC(C)(C)CC5)CCO4)cnc2[nH]1 (configuration not stated) |
| 50 to 250 nM | Cc1nc2ccc(-c3ccc4c(c3)CN(c3nccc5ccccc35)CCO4)cc2[nH]1 |
| 10 to 50 nM | COC(=O)Nc1nc2ccc(-c3ccc4c(c3)CN(c3ncnc5ccc(OC)cc35)CCO4)cc2[nH]1 |
| 50 to 250 nM | CCNc1nc2ccc(-c3ccc4c(c3)CN(c3cc(Nc5ccccc5)ncn3)CCO4)cc2[nH]1 |
| 10 to 50 nM | Cc1nc2cc(-c3ccc4c(c3)CN(c3nc(CCN5CCCC5)nc5c3CC(C)(C)CC5)CCO4)cnc2[nH]1 |
| 250 to 1000 nM | CCNc1nc2ccc(-c3ccc4c(c3)CN(c3ccncn3)CCO4)cc2[nH]1 |
| 10 to 50 nM | CCNc1nc2ccc(-c3ccc4c(c3)CN(c3ncnc5c3CC(C)(C)CC5)CCO4)cc2[nH]1 |
| 10 to 50 nM | CCc1ncnc(N2CCOc3ccc(-c4ccc5nc(C)[nH]c5c4)cc3C2)c1Cc1ccccc1 |
| ≤ 10 nM | CN(C)Cc1nc2c(c(N3CCOc4ccc(-c5ccc(-c6ncc[nH]6)cc5)cc4C3)n1)CC(C)(C)CC2 |
| 10 to 50 nM | CC1(C)CCc2ncnc(N3CCOc4ccc(-c5cnc(N)c(S(=O)(=O)N6CC(C)(N)C6)c5)cc4C3)c2C1 |
| 50 to 250 nM | Cc1nc2c(c(N3CCOc4ccc(-c5cnc(N)c(S(=O)(=O)N[C@@H]6CCN(C)C6)c5)cc4C3)n1)CC(C)(C)CC2 |
| 10 to 50 nM | Cc1nc2ccc(-c3ccc4c(c3)CN(c3nc(CN(C)C)nc(C)c3CC3CC3)CCO4)cc2[nH]1 |
| ≤ 10 nM | COc1cc2nccc(N3CCOc4ccc(-c5cnc6nc(N)[nH]c6c5)cc4C3)c2cc1OC |
| ≤ 10 nM | CCNc1nc2ccc(-c3ccc4c(c3)CN(c3nc(C)nc5cc(OC)ccc35)CCO4)cc2[nH]1 |
| 250 to 1000 nM | Cc1nc2ccc(-c3ccc4c(c3)CN(c3ncnc5scc(C)c35)CCO4)cc2[nH]1 |
| 10 to 50 nM | Cc1nc2ccc(-c3ccc4c(c3)CN(c3ncnc5cc(I)ccc35)CCO4)cc2[nH]1 |
| 50 to 250 nM | CCOc1ncc(-c2ccc3c(c2)CN(c2ncnc4c2CC(C)(C)CC4)CCO3)cc1NS(C)(=O)=O |
| ≤ 10 nM | CCCc1c(C)nc(CN(C)C)nc1N1CCOc2ccc(-c3cnc4sc(N)nc4c3)cc2C1 |
| 250 to 1000 nM | COC(=O)Nc1nc2ccc(-c3ccc4c(c3)CN(c3ncnc5[nH]ccc35)CCO4)cc2[nH]1 |
| 10 to 50 nM | CCNc1nc2ccc(-c3ccc4c(c3)CN(c3nc(CC)nc5ccccc35)CCO4)cc2[nH]1 |
| 10 to 50 nM | Cc1nc2cc(-c3ccc4c(c3)CN(c3nc(C(C)N)nc5c3CC(C)(C)CC5)CCO4)ccc2[nH]1 (configuration not stated) |
